Measured values from paper PMC9398908, “GLP-1-mediated delivery of tesaglitazar improves obesity and glucose metabolism in male mice” (Nature Metabolism, 2022).
“And” between values parts separate entries of the source, which are not always exact repeats. Equal values may be shown once.

How the values were obtained:
hGLP-1R = target: T1, hGLP-1R (Homo sapiens, UniProt P43220); experiment: Ligand-induced Mini-Gαs recruitment to hGLP-1R-GFP (BRET) in HEK293T cells; assay type: cell-based; conditions: HEK293 cells transfected with human GLP-1R; dose response, Fig. 1a; in words
T1 construct: host or cells: HEK293T, transient transfection
T1 sequence (P43220 24-463): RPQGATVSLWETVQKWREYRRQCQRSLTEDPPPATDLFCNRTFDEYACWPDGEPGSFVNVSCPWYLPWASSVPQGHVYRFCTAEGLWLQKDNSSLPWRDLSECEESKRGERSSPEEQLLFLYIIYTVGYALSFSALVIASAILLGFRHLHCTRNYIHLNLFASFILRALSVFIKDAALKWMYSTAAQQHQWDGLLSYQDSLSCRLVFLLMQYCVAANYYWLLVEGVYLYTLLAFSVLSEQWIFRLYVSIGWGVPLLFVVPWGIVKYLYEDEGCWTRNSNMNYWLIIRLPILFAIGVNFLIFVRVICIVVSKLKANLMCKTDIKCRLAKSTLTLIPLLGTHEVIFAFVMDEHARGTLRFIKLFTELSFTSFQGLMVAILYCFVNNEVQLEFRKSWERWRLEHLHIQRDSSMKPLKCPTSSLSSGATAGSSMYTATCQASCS
Description: (§1) HEK293T cells (700,000 per well) were seeded in six-well plates and incubated to 70% confluency in DMEM (10% FBS, 1% Pen/Strep). Twenty-four hours following seeding, transient transfections were performed using Lipofectamine 2000 (catalogue no. 11668019, Invitrogen) according to the manufacturer’s protocol without including additional transformation carrier DNA.
Twenty-four hours following transfection, HEK293T cells or MIN6 cells were washed with PBS and resuspended in FluoroBrite phenol red-free complete media (catalogue no. A1896701, Life Technologies) containing 5% FBS and 2 mM of L-glutamine (catalogue no. 25030081, Life Technologies). 100,000 cells per well were plated into poly-D-lysine-coated (catalogue no. P6403, Sigma-Aldrich) 96-well white polystyrene LumiNunc plates (catalogue no. 10072151, Thermo Fisher Scientific). After 24 h, the media was replaced with PBS (catalogue no. 10010056, Gibco) containing 10 μM of coelenterazine-h (catalogue no. S2011, Promega) or 1:500 dilution of NanoGlo (catalogue no. N1110, Promega). BRET measurements were taken every 30 s–2 min using a PHERAstar FS multi-mode microplate reader. […] The resulting ligand-specific ratiometric BRET signals were normalized to vehicle producing the ‘ligand-induced BRET ratio’[37], followed by an additional normalization step to well-specific baseline readings.

PPARγ2/RXR = target: T2, PPARγ2/RXR (Homo sapiens, UniProt P37231); experiment: RXR-Rluc8 / PPARγ2-YFP heterodimerization (BRET) in hGLP-1R(+) HEK293T cells; assay type: cell-based; conditions: GLP-1R (+), 1μM
T2 construct: host or cells: HEK293T, with (A8) or without (A9) co-expressed hGLP-1R
T2 sequence (P37231 1-505): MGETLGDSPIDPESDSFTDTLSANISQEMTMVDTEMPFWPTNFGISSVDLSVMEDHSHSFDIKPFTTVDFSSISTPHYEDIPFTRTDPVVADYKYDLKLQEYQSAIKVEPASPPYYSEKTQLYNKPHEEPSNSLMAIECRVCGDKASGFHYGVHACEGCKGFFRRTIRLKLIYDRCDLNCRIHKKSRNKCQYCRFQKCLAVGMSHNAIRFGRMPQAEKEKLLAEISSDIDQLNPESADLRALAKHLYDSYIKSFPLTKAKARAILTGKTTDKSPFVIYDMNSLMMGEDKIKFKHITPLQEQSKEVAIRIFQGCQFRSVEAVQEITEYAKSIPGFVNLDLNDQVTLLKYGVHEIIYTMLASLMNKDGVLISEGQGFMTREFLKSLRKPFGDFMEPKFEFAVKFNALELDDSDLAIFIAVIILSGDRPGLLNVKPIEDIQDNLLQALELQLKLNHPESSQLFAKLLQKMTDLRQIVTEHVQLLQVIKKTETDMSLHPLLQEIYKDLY
T2 sequence (P19793 1-462 partner): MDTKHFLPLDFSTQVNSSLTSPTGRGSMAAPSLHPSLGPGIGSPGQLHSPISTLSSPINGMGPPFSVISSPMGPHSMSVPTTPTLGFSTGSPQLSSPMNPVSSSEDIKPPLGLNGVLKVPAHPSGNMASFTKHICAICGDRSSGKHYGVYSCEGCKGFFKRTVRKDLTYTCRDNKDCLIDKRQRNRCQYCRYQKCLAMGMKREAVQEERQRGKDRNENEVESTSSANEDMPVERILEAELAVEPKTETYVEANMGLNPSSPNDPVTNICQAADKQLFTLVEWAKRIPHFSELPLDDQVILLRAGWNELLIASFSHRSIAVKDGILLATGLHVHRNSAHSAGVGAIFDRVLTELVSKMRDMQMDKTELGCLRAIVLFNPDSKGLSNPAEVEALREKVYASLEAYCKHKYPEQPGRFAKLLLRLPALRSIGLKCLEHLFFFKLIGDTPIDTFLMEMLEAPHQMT
Description: as §1
Twenty-four hours following transfection, HEK293T cells or MIN6 cells were washed with PBS and resuspended in FluoroBrite phenol red-free complete media (catalogue no. A1896701, Life Technologies) containing 5% FBS and 2 mM of L-glutamine (catalogue no. 25030081, Life Technologies). 100,000 cells per well were plated into poly-D-lysine-coated (catalogue no. P6403, Sigma-Aldrich) 96-well white polystyrene LumiNunc plates (catalogue no. 10072151, Thermo Fisher Scientific). After 24 h, the media was replaced with PBS (catalogue no. 10010056, Gibco) containing 10 μM of coelenterazine-h (catalogue no. S2011, Promega) or 1:500 dilution of NanoGlo (catalogue no. N1110, Promega). BRET measurements were taken every 30 s–2 min using a PHERAstar FS multi-mode microplate reader. Baseline measurements were taken after an initial 5 min of incubation with coelenterazine-h or NanoGlo-containing PBS after which cells were then treated with either vehicle (PBS) or respective ligands. The resulting ligand-specific ratiometric BRET signals were normalized to vehicle producing the ‘ligand-induced BRET ratio’[37], followed by an additional normalization step to well-specific baseline readings. Ligand-induced measurements on the temporal scale is represented as the subsequent measurement after time point zero. Positive or negative incremental AUC (+iAUC/−iAUC) were calculated where noted. Each experiment was independently performed at least three times, each with at least three technical replicates for each group.
Untagged hGLP-1R was purchased from Sino Biological Inc. (catalogue no. HG13944-UT), hGLP-1R-GFP was a kind gift from D. Hodson (University of Birmingham), and hGLP-1R-Rluc8 was a kind gift from P. Sexton (Monash University, Melbourne, Australia). Gαs recruitment to the GLP-1R-GFP was quantified using mini-Gαs, a protein probe that translocates to ligand-bound Gαs-coupled G-protein coupled receptors. NES-Nluc-MiniGαs was a gift from K. Pfleger (Harry Perkins Institute of Medical Research, Nedlands, Western Australia, Australia). Intracellular cAMP was measured using the YFP-Epac-Rluc CAMYEL sensor[39]. hGLP-1R-RLUC8 internalization was quantified using the intracellular plasma membrane marker Venus-KRAS[40]. Venus-KRAS was a kind gift from K. Pfleger. GLP-1R-Rluc8 lysosomal colocalization was measured using Lamp1-mNeonGreen. Lamp1-mNeonGreen was a gift from D. Gadella (Addgene plasmid no. 98882). Time-dependent RXR/PPARγ heterodimerization was measured using RXR-Rluc8 and PPARγ2-YFP, both of which were kind gifts from V. Ollendorf[41].

DIO mice = experiment: In vivo glucose-stimulated insulin secretion in DIO mice (Fig. 2i); design: species or system mouse; conditions: Figure 2i, individual mice

## CCO[C@@H](Cc1ccc(OCCc2ccc(OS(C)(=O)=O)cc2)cc1)C(=O)O [tesaglitazar, (S)-2-ethoxy-3-(4-(4-((methylsulfonyl)oxy)phenethoxy)phenyl) propanoic acid]
hGLP-1R
  GLP-1R-mediated Gαs recruitment: had no effect
PPARγ2/RXR; replicate 1
  RXR/PPARγ Heterodimerization (AUC), +iAUC: 81.74
PPARγ2/RXR; replicate 2
  RXR/PPARγ Heterodimerization (AUC), +iAUC: 115.10
PPARγ2/RXR; replicate 3
  RXR/PPARγ Heterodimerization (AUC), +iAUC: 84.31
PPARγ2/RXR; replicate 4
  RXR/PPARγ Heterodimerization (AUC), +iAUC: 42.82
PPARγ2/RXR; replicate 5
  RXR/PPARγ Heterodimerization (AUC), +iAUC: 35.86
PPARγ2/RXR; replicate 6
  RXR/PPARγ Heterodimerization (AUC), +iAUC: 49.17
PPARγ2/RXR; replicate 7
  RXR/PPARγ Heterodimerization (AUC), +iAUC: 59.85
PPARγ2/RXR; replicate 8
  RXR/PPARγ Heterodimerization (AUC), +iAUC: 106.60
DIO mice
  GSIS: 0.684 and 1.33 and 1.611 and 0.796 and 0.457 and 0.687 and 1.335 and 1.19
